Source: ChEMBL document CHEMBL1201862, “PubChem BioAssay data set” (2004)
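Protocol summary: plate cells (96-well), add compound at 5 concentrations, incubate 48 h, interpolate endpoints linearly. GI50 marks 50% less growth.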 The source made the active and inactive calls. Rule as the data show it: active = GI50 up to about 1.1 µM and inactive = higher.

Tests used:
Test in all cases: growth of human tumour cells (NCI), 48 h
[1] = system: A498
[2] = system: OVCAR-5
[3] = system: M14
[4] = system: UACC-62
[5] = system: HCC 2998
[6] = system: HT-29
[7] = system: SF-295
[8] = system: HOP-62
[9] = system: TK-10
[10] = system: COLO 205
[11] = system: Malme-3M
[12] = system: HOP-92
[13] = system: SF-539
[14] = system: SR
[15] = system: SK-MEL-2
[16] = system: NCI/ADR-RES
[17] = system: MCF7
[18] = system: DU-145
[19] = system: Hs-578T

Measured: GI50

COc1cc(-c2n[nH]cc2CCCC(=O)Nc2ccccc2[N+](=O)[O-])ccc1O
inactive: [1] > 100 µM | [2] > 100 µM | [3] 50.9 µM | [4] 67.9 µM | [5] > 100 µM | [6] > 100 µM | [7] > 100 µM | [8] > 100 µM | [9] > 100 µM | [10] > 100 µM | [11] 19.2 µM | [12] 91.8 µM | [13] 74.5 µM | [14] 46.9 µM

N#CCCN(c1ccc(/C=C2\N=C(c3ccc(Cl)cc3)OC2=O)cc1)S(=O)(=O)c1ccccc1
inactive: [1] > 100 µM | [2] > 100 µM | [3] > 100 µM | [4] > 100 µM | [5] > 100 µM | [6] > 100 µM | [7] > 100 µM | [8] > 100 µM | [9] > 100 µM | [10] > 100 µM | [15] > 100 µM | [13] > 100 µM | [14] > 100 µM

N=C(N)NS(=O)(=O)c1ccc(NC(=O)c2c3ccccc3nc3ccccc23)cc1
inactive: [16] > 100 µM | [1] > 100 µM | [2] > 100 µM | [3] > 100 µM | [4] > 100 µM | [5] > 100 µM | [6] > 100 µM | [7] > 100 µM | [8] > 100 µM | [17] > 100 µM | [9] > 100 µM | [18] > 100 µM | [10] > 100 µM | [11] > 100 µM | [15] > 100 µM | [12] > 100 µM | [13] > 100 µM | [14] > 100 µM

CC(C)(C)OC(=O)NC(C)(C)C(=O)NCCC(=O)O
inactive: [16] > 100 µM | [1] > 100 µM | [2] > 100 µM | [3] > 100 µM | [4] > 100 µM | [6] > 100 µM | [7] > 100 µM | [8] > 100 µM | [17] > 100 µM | [9] > 100 µM | [10] > 100 µM | [19] > 100 µM | [15] > 100 µM | [13] > 100 µM

Cc1ccccc1/N=N/c1ccc(/N=N/c2c(O)ccc3cc(S(=O)(=O)O)cc(S(=O)(=O)O)c23)c(C)c1
inactive: [16] > 100 µM | [2] > 100 µM | [3] > 100 µM | [4] > 100 µM | [5] > 100 µM | [6] > 100 µM | [7] > 100 µM | [8] > 100 µM | [17] > 100 µM | [9] > 100 µM | [10] > 100 µM | [11] > 100 µM | [19] > 100 µM | [15] > 100 µM | [12] > 100 µM | [13] > 100 µM | [14] > 100 µM

O=[N+]([O-])/C(C(Cl)=C(Cl)Cl)=C(\Nc1ccccc1)n1nnc2ccccc21
inactive: [16] 41.6 µM | [1] > 100 µM | [2] 42.1 µM | [3] 65 µM | [4] 40 µM | [5] > 100 µM | [6] 44.8 µM | [7] 44.7 µM | [8] 30.6 µM | [17] 55.8 µM | [10] 27 µM | [11] 46.1 µM | [19] 20.6 µM | [15] 27.2 µM | [13] 32.3 µM

COC(OC)[C@@H]1OC[C@H](n2cnc3c(N)ncnc32)[C@H]1O
inactive: [16] > 100 µM | [1] > 100 µM | [2] > 100 µM | [3] > 100 µM | [4] > 100 µM | [5] > 100 µM | [6] > 100 µM | [7] > 100 µM | [8] > 100 µM | [9] > 100 µM | [18] > 100 µM | [10] > 100 µM | [19] > 100 µM | [15] > 100 µM | [12] > 100 µM | [13] > 100 µM | [14] > 100 µM

C/C(=C\c1ccccc1)C(=O)NCc1ccc(C(=O)NCCc2c[nH]c3ccccc23)cc1
inactive: [16] > 100 µM | [1] 22 µM | [2] > 100 µM | [3] > 100 µM | [4] 14 µM | [5] 16 µM | [6] > 100 µM | [7] > 100 µM | [8] 82 µM | [17] 24.3 µM | [9] 16.4 µM | [18] > 100 µM | [10] 37.6 µM | [11] > 100 µM | [15] > 100 µM | [12] > 100 µM | [13] > 100 µM | [14] > 100 µM

CCCc1n[nH]c(CCC(=O)N(Cc2ccccc2)Cc2ccccc2)c1CC
inactive: [1] > 100 µM | [2] > 100 µM | [3] > 100 µM | [4] > 100 µM | [5] > 100 µM | [6] > 100 µM | [7] > 100 µM | [8] > 100 µM | [9] > 100 µM | [10] > 100 µM | [11] > 100 µM | [15] > 100 µM | [13] > 100 µM

CCCC[C@@H]1CCN2C[C@@H](O)[C@@H](O)[C@H]2[C@@H]1O
inactive: [16] > 100 µM | [1] > 100 µM | [2] > 100 µM | [3] > 100 µM | [4] > 100 µM | [5] > 100 µM | [6] > 100 µM | [7] > 100 µM | [17] > 100 µM | [9] > 100 µM | [10] > 100 µM | [11] > 100 µM | [19] > 100 µM | [15] > 100 µM | [12] > 100 µM | [13] > 100 µM

COC(=O)C1C(C(=O)OC)C2(OC)c3ccccc3-c3ccccc3C12 (configuration not stated)
inactive: [1] 44 µM | [2] > 100 µM | [3] 34.2 µM | [4] 26.1 µM | [5] 64.3 µM | [6] 32.2 µM | [7] 38.2 µM | [8] 71.6 µM | [9] 31.8 µM | [10] 16.1 µM | [11] 47.9 µM | [15] 8.51 µM | [12] 35 µM | [13] 66.5 µM | [14] 15.5 µM

O=C1CCCCC/C1=C\c1ccc([N+](=O)[O-])cc1
inactive: [16] 37.8 µM | [1] 35.2 µM | [2] 31.4 µM | [3] 32.1 µM | [4] 27.8 µM | [5] 17.1 µM | [6] 30.3 µM | [7] 35.2 µM | [8] 38.5 µM | [17] 46.3 µM | [9] 28.5 µM | [18] 41.4 µM | [10] 24 µM | [11] 43.7 µM | [15] 33 µM | [13] 26.5 µM | [14] 40.1 µM
